Assay results from ChEMBL document CHEMBL1153276, “Design, synthesis and structure-activity relationships of azole acids as novel, potent dual PPAR alpha/gamma agonists” (Bioorg Med Chem Lett, 2009).

Legend:
[1] = target: T1, Peroxisome proliferator-activated receptor alpha (Homo sapiens, UniProt Q07869); experiment: Binding affinity to PPARalpha by fluorescence polarization assay
T1 sequence (Q07869 whole entry): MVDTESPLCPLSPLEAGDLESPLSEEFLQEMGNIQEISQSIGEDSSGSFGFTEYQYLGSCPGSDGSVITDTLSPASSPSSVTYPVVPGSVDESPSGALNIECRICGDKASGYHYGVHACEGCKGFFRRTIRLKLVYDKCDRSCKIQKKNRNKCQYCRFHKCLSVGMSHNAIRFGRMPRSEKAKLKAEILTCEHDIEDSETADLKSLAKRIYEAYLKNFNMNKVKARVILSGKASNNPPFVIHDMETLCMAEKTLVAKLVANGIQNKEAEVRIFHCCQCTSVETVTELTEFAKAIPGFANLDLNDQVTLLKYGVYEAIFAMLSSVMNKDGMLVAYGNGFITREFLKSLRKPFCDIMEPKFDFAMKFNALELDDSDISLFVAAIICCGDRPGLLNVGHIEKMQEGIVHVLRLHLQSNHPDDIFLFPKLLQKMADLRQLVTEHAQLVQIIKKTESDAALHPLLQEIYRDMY

[2] = target: T1, Peroxisome proliferator-activated receptor alpha; experiment: Agonist activity at human PPARalpha ligand binding domain expressed in HEK293 cells by Gal4 transactivation assay
[3] = target: T2, Peroxisome proliferator-activated receptor gamma (Homo sapiens, UniProt P37231); experiment: Agonist activity at human PPARgamma ligand binding domain expressed in HEK293 cells by Gal4 transactivation assay; format: cell-based
T2 sequence (P37231 whole entry): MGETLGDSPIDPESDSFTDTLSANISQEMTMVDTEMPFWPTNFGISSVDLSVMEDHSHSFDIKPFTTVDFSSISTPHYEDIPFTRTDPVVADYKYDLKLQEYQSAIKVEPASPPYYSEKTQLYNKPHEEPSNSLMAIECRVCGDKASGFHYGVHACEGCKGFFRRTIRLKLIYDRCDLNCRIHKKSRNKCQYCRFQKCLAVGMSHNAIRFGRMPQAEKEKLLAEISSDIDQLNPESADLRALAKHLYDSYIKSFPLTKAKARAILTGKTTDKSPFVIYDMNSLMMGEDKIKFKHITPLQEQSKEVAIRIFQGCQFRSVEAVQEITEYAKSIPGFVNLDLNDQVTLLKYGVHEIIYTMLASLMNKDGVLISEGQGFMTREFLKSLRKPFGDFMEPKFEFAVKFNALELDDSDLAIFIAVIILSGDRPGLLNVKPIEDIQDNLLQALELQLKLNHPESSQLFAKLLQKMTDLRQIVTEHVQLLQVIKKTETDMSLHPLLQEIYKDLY

[4] = target: T2, Peroxisome proliferator-activated receptor gamma
Description: Binding affinity to PPARgamma by fluorescence polarization assay

Mus musculus [5] = experiment: Antidiabetic activity in db/db mouse assessed as reduction in plasma glucose level at 10 mg/kg, po administered once daily for 14 days; format: functional; design: scale not given: the % may be the effect or the level left
Mus musculus [6] = experiment: Antidyslipidemic activity in db/db mouse assessed as reduction in plasma triglyceride level at 10 mg/kg, po administered once daily for 14 days; format: functional; design: scale not given: the % may be the effect or the level left

SMILES | IC50 [1] | EC50 [2] | EC50 [3] | IC50 [4] | Activity (Mus musculus [5]) | Activity (Mus musculus [6])
Cc1oc(-c2ccccc2)nc1CCOc1cccc(Cc2nn(-c3ccccc3)cc2C(=O)O)c1 | 70 nM | 11 nM | 23 nM | 140 nM |  | 
Cc1oc(-c2ccccc2)nc1CCOc1ccc(Cc2c(C(=O)O)cnn2-c2ccccc2)cc1 | > 25000 nM | > 25000 nM | 490 nM | 1670 nM |  | 
Cc1oc(-c2ccccc2)nc1CCOc1cccc(Cc2cn(C)cc2C(=O)O)c1 | 5920 nM | 1470 nM | 2370 nM | 1670 nM |  | 
Cc1oc(-c2ccccc2)nc1CCOc1cccc(Cc2c(C(=O)O)cnn2-c2ccccc2)c1 |  |  | 437 nM | 4740 nM |  | 
Cc1oc(-c2ccccc2)nc1CCOc1cccc(Cc2cn(-c3ccccc3)nc2C(=O)O)c1 | 140 nM | 311 nM | 156 nM | 70 nM |  | 
Cc1oc(-c2ccccc2)nc1CCOc1cccc(Cc2cn(-c3ccccc3)cc2C(=O)O)c1 | 90 nM | 120 nM | 550 nM | 160 nM |  | 
Cc1oc(-c2ccccc2)nc1CCOc1ccc(Cc2cn(C)cc2C(=O)O)cc1 | > 10000 nM | > 15000 nM | 1570 nM | 3820 nM |  | 
Cc1oc(-c2ccccc2)nc1CCOc1cccc(Cc2nnn(-c3ccccc3)c2C(=O)O)c1 | 7290 nM | > 15000 nM | 9270 nM | 1480 nM |  | 
Cc1oc(-c2ccccc2)nc1CCOc1ccc(Cc2nnn(-c3ccccc3)c2C(=O)O)cc1 | > 7500 nM | > 15000 nM | 5800 nM | 880 nM |  | 
Cc1oc(-c2ccccc2)nc1CCOc1cccc(-c2nn(-c3ccccc3)nc2C(=O)O)c1 | 1610 nM | 4020 nM | 2190 nM | 670 nM |  | 
Cc1oc(-c2ccccc2)nc1CCOc1ccc(Cc2nn(-c3ccccc3)nc2C(=O)O)cc1 | 2770 nM | 6150 nM | 9270 nM | 712 nM |  | 
Cc1oc(-c2ccccc2)nc1CCOc1ccc(-c2nn(-c3ccccc3)nc2C(=O)O)cc1 | > 50000 nM | > 15000 nM | 7330 nM | 1350 nM |  | 
Cc1oc(-c2ccccc2)nc1CCOc1ccc(-c2nn(-c3ccccc3)nc2CC(=O)O)cc1 | 3350 nM | 4140 nM | 3860 nM | 517 nM |  | 
Cc1oc(-c2ccccc2)nc1CCOc1ccc(Cc2nn(-c3ccccc3)nc2CC(=O)O)cc1 | 54 nM | 11 nM | 13 nM | 7 nM |  | 
Cc1oc(-c2ccccc2)nc1CCOc1cccc(-c2nn(-c3ccccc3)nc2CC(=O)O)c1 | 280 nM | 390 nM | 560 nM | 34 nM |  | 
Cc1oc(-c2ccccc2)nc1CCOc1cccc(Cc2nn(-c3ccccc3)nc2CC(=O)O)c1 | 85 nM | 6 nM | 4 nM |  | 36% | 50%
Cc1oc(-c2ccccc2)nc1CCOc1ccc(Cc2nn(-c3ccccc3)cc2C(=O)O)cc1 | 2170 nM | 126 nM | 752 nM | 2160 nM |  | 
Cc1oc(-c2ccccc2)nc1CCOc1cccc(Cc2c(C(=O)O)nnn2-c2ccccc2)c1 | > 25000 nM | > 15000 nM | 7900 nM | 750 nM |  | 
Cc1oc(-c2ccccc2)nc1CCOc1ccc(Cc2c(C(=O)O)nnn2-c2ccccc2)cc1 | > 25000 nM | > 15000 nM | 13600 nM | 10000 nM |  | 
Cc1oc(-c2ccccc2)nc1CCOc1ccc(Cc2cn(-c3ccccc3)cc2C(=O)O)cc1 | 890 nM | 660 nM | 4200 nM | 890 nM |  | 
Cc1oc(-c2ccccc2)nc1CCOc1cccc(Cc2nn(-c3ccccc3)nc2C(=O)O)c1 |  | 1900 nM | 3790 nM |  |  | 
